Assay results taken from patent US20130042333A1, “MARKERS FOR CANCER PROGNOSIS AND THERAPY AND METHODS OF USE” (priority 2011, published 2013).

What was measured:
[1] = tested on: HBCx-14 breast tumor xenograft; details: A/C 2/100 or C 100 mg/kg, x2 cycles
From the text: Tumor xenografts were generated by direct subcutaneous grafting into immunodeficient mice of human tumor surgical samples with informed written consent of the patients and maintained by serial transplantation. […] They are thus clinically relevant tumor models, as opposed to xenografts produced from tumor cell lines that have been obtained by in vitro culture and often passaged for many years (Fiebig, H. H. et al. Eur J Cancer 40, 802-820, 2004; Marangoni E., Vincent-Salomon A., Auger N. et al. Clin Cancer Res. 2007 Jul. 1; 13:3989-98).
Chemotherapeutic drugs were administered by intraperitoneal route according to the following doses and schedules: adriamycin, 2 mg/kg, q3wk (Doxorubicin®, Teva Pharmaceuticals, France) and Cyclophosphamide, 100 mg/kg, q3wk (Endoxan®, Baxter, France). Irinotecan (Campto®, Pfizer Holding France), 50 mg/kg, q4dx4. Etoposide 12 mg/kg, qdx3. Ifosfamide 90 mg/kg, qdx3. bPARP inhibitor (AZD2281, Sequoia Research Products, UK) at 50 mg/kg (ip; qdx14). A second treatment cycle was performed with PARP inhibitor at 50 mg/kg (ip qdx5) during the nodule phase. Other pharmacological inhibitors are tested and administrated at the nodule phase: JAK1/2 Inhibitor (CP-690550) at 15 mg/kg (po qdx14), Epigallocatechin gallate (ECGC) (Sequoia Research Products, UK) at 30 mg/kg (ip qdx28), HDAC inhibitor (Trichostatine A), Retinoic acid at 50 mg/kg (ip qdx28) (Sigma-Aldrich, France). Breast tumor xenograft models were transplanted into 5-week old female Swiss nude mice, as described above, one tumor being transplanted into 5-10 recipients. When tumors reached a volume of 60-250 mm3, mice were individually identified and randomly assigned to the control or treated groups (12 to 20 mice per group). Tumor volume was evaluated by measuring two perpendicular diameters of the tumor, with a calliper, biweekly during the treatment period and once a week during the follow-up period. The formula TV (mm3)=[length (mm)×width (mm)2]/2 was used, where the length and the width were the longest and the shortest diameters of the tumor, respectively. All animals were weighted biweekly during the treatment period and the follow-up period. Mice were ethically sacrificed when the tumor volume reached 2000 mm3 Individual tumor growth delays (TGD) is calculated as the time in days required for individual tumors to reach 3- to 5-fold the initial median tumor volume. The tumor growth delay index (TGDI) is calculated as the median growth delay in the treated group divided by the median growth delay in the control group. The percentage ratio between the mean tumor volume of a treated group (T) and the mean tumor volume of the control group (C) is calculated.
(§1) Tumors were collected from 5 independent mice at different time points: prior to treatment (=controls with volume<200 mm3); post-treatment residual tumors (=nodules with volume<32 mm3 until minimal palpation); recurrent tumors (=regrowth with volume>62.5 mm3) Tumors or nodules were processed for (1) FFPE (formalin-fixed paraffin-embedded) or for (2) snap frozen samples: samples were cut into 3-4 mm pieces (at least 3 fragments) and snap-frozen in liquid nitrogen, then transferred to −80° C. for storage. Samples were allocated for histology, microdissection and RNA analyses.
Three categories of responders were defined based on the TGDI and T/C values.

[2] = tested on: Stat1 (total, phospho-Tyr701, phospho-Ser727), Ifi27, Ifi44, Lcn2, Oas1; details: T330 breast cancer xenograft; after chemotherapy; compared with A/C combination
Procedure: as §1

In the case of `O=P1(N(CCCl)CCCl)NCCCO1` (centres unmarked) [C, Cyclophosphamide], the “% Nodules” value [1] is reported as 100%, the “% Tumor Relapse” value [1] is reported as 67% and the “Median Nodule Apparition Time” value [1] is reported as 11. For the same molecule, the “Median Time of Relapse” value [1] was 53, the “T/C % D21” value [1] was 2% and the TGDI [1] was 6.66. The “median TGD × 5” value [1] was 82.00 days and the “total and phosphorylated Stat1 protein (western blotting)” value [2] was “same increase in Stat 1 protein amount and phosphorylation level”.
